According to article PMC11314561, “Design and Synthesis of Novel Aminoindazole-pyrrolo[2,3-b]pyridine Inhibitors of IKKα That Selectively Perturb Cellular Non-Canonical NF-κB Signalling” (Molecules, 2024):
Read-outs that look alike come from different tables or passages of the source.

Assays:
MLCK(h) = test: kinase panel; format: biochemical, human; conditions: 1 μM
Description: We profiled three compounds from the series across the kinome (Table S1).
Ta b l e S1. The % inhibition of compounds 4, 5r [SU1261], and 6g [SU1349] against a
panel of kinase enzymes. We proϐiled three compounds from the series across 231
kinases. For SU1349, given its structural similarity with SU1261, we selected 98 from the
Tested kinase % inhibiƟon

STK33(h) = STK33(h) (Homo sapiens, UniProt Q9BYT3); test: kinase panel; format: biochemical
How it was run: (§1)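 % inhibition read-out; kinome panel of 231 kinases; one analogue run on a selected 98-kinase subset only.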

MKK6(h) = MKK6(h) (Homo sapiens, UniProt P52564); test: kinase panel; format: biochemical
Sequence of MKK6(h) (P52564 whole entry): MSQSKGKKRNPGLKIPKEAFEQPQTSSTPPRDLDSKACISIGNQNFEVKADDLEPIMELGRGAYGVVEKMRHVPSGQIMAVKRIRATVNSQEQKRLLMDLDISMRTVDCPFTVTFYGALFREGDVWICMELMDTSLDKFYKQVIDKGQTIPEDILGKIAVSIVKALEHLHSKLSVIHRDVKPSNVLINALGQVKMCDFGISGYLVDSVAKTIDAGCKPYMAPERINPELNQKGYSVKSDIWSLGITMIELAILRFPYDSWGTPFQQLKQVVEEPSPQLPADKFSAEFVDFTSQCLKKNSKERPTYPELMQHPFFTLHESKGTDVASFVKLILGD
How it was run: as §1

PASK(h) = PASK(h) (Homo sapiens, UniProt Q96RG2); test: kinase panel; format: biochemical
Sequence of PASK(h) (Q96RG2 whole entry): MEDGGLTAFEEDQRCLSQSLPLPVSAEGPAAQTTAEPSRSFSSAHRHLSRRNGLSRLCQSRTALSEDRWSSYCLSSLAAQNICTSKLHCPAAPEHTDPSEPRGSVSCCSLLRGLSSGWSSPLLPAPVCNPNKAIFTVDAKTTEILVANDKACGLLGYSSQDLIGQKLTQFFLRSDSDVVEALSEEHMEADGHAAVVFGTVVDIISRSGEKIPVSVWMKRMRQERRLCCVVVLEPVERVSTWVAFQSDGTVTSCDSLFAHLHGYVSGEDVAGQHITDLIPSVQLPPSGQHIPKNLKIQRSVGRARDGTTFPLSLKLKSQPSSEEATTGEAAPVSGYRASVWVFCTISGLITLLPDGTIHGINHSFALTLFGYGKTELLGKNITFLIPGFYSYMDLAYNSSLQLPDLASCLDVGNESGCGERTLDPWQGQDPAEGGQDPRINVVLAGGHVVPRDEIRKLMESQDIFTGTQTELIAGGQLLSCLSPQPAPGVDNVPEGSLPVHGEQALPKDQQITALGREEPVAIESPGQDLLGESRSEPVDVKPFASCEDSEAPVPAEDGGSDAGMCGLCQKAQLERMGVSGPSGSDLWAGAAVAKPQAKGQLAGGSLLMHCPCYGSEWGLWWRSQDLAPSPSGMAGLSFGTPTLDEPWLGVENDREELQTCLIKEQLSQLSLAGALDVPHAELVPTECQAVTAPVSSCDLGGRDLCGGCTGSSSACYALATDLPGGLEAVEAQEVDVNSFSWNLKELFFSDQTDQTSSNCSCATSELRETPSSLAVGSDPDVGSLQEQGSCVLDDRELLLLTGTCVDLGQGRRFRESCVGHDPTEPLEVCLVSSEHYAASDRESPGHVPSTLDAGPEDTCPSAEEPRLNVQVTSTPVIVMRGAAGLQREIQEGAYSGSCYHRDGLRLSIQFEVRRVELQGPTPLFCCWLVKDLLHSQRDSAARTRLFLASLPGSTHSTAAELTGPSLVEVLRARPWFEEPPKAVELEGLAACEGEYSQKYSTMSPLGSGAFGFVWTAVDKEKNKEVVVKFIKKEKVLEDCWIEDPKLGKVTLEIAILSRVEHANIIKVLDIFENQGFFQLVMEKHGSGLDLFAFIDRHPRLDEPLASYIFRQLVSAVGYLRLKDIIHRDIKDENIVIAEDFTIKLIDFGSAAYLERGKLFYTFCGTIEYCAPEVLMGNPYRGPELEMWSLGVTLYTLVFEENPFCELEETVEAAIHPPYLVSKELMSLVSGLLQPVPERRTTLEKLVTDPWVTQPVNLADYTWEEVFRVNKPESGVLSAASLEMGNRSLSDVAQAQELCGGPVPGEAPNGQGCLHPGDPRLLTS
How it was run: as §1

Tie2 (h) = Tie2 (h) (Homo sapiens, UniProt Q02763); test: kinase panel; format: biochemical
Sequence of Tie2 (h) (Q02763 23-1124): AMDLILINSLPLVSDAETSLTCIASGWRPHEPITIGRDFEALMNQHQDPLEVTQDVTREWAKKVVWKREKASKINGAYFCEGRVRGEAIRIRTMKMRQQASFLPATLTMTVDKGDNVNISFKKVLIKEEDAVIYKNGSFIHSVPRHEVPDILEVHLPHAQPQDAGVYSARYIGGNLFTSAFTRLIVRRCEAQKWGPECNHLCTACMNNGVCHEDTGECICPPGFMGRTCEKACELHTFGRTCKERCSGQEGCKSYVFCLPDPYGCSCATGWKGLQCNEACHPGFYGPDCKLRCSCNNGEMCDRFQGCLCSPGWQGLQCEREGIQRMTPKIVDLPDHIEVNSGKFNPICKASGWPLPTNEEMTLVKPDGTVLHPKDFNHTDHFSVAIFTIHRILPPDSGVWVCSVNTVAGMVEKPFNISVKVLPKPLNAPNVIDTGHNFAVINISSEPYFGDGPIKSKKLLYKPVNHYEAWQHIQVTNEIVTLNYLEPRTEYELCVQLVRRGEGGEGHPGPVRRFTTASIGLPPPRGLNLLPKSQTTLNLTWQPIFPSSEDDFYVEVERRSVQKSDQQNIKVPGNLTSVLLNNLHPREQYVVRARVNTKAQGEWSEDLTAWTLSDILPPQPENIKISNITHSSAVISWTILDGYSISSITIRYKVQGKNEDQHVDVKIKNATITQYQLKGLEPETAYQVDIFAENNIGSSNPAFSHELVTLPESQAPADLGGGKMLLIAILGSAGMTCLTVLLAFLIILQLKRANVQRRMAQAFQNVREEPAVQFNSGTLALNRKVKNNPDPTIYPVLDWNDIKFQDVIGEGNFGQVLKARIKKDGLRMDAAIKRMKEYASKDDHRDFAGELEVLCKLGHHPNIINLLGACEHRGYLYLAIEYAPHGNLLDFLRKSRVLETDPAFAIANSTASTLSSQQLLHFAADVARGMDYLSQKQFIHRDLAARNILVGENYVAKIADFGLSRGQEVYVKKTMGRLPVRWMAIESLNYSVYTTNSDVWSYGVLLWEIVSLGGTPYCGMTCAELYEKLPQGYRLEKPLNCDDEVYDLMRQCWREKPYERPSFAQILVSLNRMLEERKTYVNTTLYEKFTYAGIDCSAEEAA
How it was run: as §1

mTOR/FKBP12(h) = mTOR/FKBP12(h) (Homo sapiens, UniProt P42345); test: kinase panel; format: biochemical
Sequence of mTOR/FKBP12(h) (P42345 1362-2549 limits assumed): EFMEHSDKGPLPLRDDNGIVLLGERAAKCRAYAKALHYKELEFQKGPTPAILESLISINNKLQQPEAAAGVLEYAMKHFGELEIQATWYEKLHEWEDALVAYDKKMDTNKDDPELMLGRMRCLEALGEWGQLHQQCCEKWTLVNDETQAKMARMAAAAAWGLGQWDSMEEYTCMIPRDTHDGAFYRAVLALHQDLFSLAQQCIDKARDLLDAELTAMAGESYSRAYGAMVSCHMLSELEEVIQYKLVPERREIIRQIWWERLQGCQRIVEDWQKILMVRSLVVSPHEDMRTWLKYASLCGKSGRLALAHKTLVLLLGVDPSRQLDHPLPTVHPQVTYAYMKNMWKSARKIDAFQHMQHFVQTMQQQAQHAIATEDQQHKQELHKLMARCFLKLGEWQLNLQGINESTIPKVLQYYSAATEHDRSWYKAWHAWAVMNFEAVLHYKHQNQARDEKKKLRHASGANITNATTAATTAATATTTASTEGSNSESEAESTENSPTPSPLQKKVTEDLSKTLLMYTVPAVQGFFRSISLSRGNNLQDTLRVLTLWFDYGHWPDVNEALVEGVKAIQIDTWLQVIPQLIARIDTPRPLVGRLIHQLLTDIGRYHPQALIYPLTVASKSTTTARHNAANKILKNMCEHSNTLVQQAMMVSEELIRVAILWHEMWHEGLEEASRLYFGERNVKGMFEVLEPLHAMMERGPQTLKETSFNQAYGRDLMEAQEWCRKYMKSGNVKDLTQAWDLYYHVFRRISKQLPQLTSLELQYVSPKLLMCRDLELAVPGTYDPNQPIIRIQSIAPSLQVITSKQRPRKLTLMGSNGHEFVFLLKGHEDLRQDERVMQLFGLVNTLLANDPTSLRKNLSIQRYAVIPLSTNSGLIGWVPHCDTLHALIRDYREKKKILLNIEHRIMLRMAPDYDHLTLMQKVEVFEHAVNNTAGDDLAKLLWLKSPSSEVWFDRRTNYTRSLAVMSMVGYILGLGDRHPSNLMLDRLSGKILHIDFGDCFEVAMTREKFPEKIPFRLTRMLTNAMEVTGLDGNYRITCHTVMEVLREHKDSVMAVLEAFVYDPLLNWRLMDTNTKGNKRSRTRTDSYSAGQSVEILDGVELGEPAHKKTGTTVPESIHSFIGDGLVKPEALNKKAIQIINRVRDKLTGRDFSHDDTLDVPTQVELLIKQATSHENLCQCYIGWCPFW
How it was run: as §1

SRPK2(h) = SRPK2(h) (Homo sapiens, UniProt P78362); test: kinase panel; format: biochemical
Sequence of SRPK2(h) (P78362 whole entry): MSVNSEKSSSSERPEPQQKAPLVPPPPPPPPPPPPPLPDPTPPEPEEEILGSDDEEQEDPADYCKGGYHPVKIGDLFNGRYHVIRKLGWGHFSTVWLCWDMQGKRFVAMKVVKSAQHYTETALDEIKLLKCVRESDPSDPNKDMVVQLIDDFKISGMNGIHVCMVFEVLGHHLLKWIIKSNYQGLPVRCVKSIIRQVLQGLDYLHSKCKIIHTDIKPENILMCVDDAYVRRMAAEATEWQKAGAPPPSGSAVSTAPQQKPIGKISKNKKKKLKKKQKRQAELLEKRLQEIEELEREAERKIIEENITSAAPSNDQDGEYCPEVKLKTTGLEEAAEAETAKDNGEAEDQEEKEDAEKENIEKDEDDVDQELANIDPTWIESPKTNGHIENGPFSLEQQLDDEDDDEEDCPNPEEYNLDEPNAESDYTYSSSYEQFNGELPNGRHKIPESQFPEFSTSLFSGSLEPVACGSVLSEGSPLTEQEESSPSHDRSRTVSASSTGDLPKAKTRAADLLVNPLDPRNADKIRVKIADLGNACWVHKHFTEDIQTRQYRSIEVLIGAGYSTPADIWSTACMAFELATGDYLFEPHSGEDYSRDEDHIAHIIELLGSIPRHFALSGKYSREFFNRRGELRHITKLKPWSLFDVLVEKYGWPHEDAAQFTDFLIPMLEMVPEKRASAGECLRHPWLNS
How it was run: as §1

[1] = test system: p65 (Ser536) phosphorylation in PC-3M cells; test: TNFα-stimulated p65 (Ser536) phosphorylation, Western blotting; format: cell-based; conditions: 0.1–10 µM
Experimental: (§2) U2OS cells were cultured in McCoy’s 5A Modified Medium, and PC-3M-Luc-C6 prostate cancer cells were cultured in Minimum Essential Medium (MEM), each containing 10% (v/v) Foetal Calf Serum (FCS), L-glutamine ([…]), and penicillin/streptomycin (250 units/mL; 100 μg/mL) and incubated in a humidified atmosphere at 37 °C with 5% (v/v) CO2. Cells were grown to near confluence and prior to experimentation rendered quiescent by serum deprivation for 24 h.
(§3) To examine the potential impact of compounds on canonical NF-κB signalling, cells were then exposed to vehicle (DMSO; 0.05% (v/v)) or increasing concentrations of compounds (0.01–30 µM) for 1 h prior to treatment with TNF⍺ (20 ng/mL) for 30 min. Whole-cell extracts were prepared, and the status of IκB⍺, phospho-p65 (Ser536), p65, and phospho-p105 ([…]) was also assessed by Western blotting.
(§4) Each figure/panel of Western blotting data represents one of at least three separate experiments. Western blots were scanned and imaged using Adobe Photoshop 5.0.2 software and polypeptide bands were semi-quantified by scanning densitometry using the Scion Image program. Data were normalised to fold expression/inhibition relative to ‘agonist plus vehicle’ treatment and expressed as mean ± s.e.m. IC50 values were established by curve fitting using the Hill equation. […]

[2] = test system: p100 phosphorylation (Ser866/870) in PC-3M cells; test: LTα1β2-stimulated p100 phosphorylation, Western blotting; format: cell-based; conditions: Homo sapiens, 1 h pre-treatment, LTα1β2 4 h
Experimental: as §2
For examination of potential effects of compound on non-canonical NF-κB signalling, cells were exposed to vehicle (DMSO; 0.03–0.05% (v/v)) or increasing concentrations of compounds (0.01–30 µM) for 1 h prior to treatment with FCS (10% (v/v); for U2OS cells) or LTα1β2 (20 ng/mL; for PC-3M cells) for 4 h. The status of p-p100 (Ser 866/870) in whole-cell extracts prepared from 12-well plates was assessed by Western blotting, as described in McKenzie et al.. […] Thereafter, p52 and RelB status in crude nuclear extracts normalised for protein amounts were assessed by Western blotting.
Each figure/panel of Western blotting data represents one of at least three separate experiments. Western blots were scanned and imaged using Adobe Photoshop 5.0.2 software and polypeptide bands were semi-quantified by scanning densitometry using the Scion Image program. […]

[3] = test system: IκBα degradation in PC-3M cells; test: TNFα-stimulated IκBα degradation, Western blotting; format: cell-based; conditions: for effect on TNFα-stimulated IκBα degradation: PC-3M cells, 0.1–10 µM
Experimental: as §2, §3
as §4, with “s.e.m.” for “s.e.m. IC50 values were established by curve fitting using the Hill equation.”
Figure 14 Compound 5r [SU1261] inhibits LTα1β2-stimulated p100 phosphorylation (Ser866/870) but not TNFα-stimulated IkBα degradation, phosphorylation of p65 (Ser536), nor phosphorylation of p105 (Ser932) in PC-3M prostate cancer cells. […] (0.1–10 µM) for 1 h prior to treatment with LTα1β2 (15 ng/mL) for 4 h, and phospho-p100 (Ser866/870) in whole-cell extracts was assessed by Western blotting. […] (0.1–10 µM) for 1 h prior to treatment with TNFα (10 ng/mL) for 30 min, and IkBα degradation, phospho-p65 (Ser536), phospho-p105 (Ser932), and p65 expression in whole-cell extracts were assessed by Western blotting. […] Normalised data (n = 3) from semi-quantitative scanning densitometry were plotted relative to ‘agonist plus vehicle’ (LTα1β2 plus DMSO), and IC50 values were established by curve fitting using the Hill equation (see Figure S1D).

In vivo murine PK = conditions: mouse, plasma, CD1 mice, 10 mg/kg, mean; for half-life: read-out: Terminal t1/2 (converted)
Experimental: Ta b l e S2. in vivo murine PK parameters for 6g [SU1349]. In vivo PK studies were performed by Shanghai ChemPartner Co. Ltd. (Shanghai, 201203 CN) Each route of administration involved three CD1 mice all receiving a single dose, with mean values reported. The IV/IP dosing solution was prepared in 10% DMAC+ 10% Solutol HS15+ 80% (15% of HP-β-CD) in water. BQL: Below quantiϐiable limit of 1 ng/mL for SU1349 in CD1 mouse plasma. All BQL data was excluded from mean value concentration and graphing. Plasma concentrations were determined on an LCMSMS-010 (API4000, triple quadruple) instrument using Positive Ion, ESI MS conditions, with deaxamethasone as an internal standard. Intravenous time points were taken at 5 min, 15 min, 30 min, 1, 2, 4, 8, and 24 hours and intraperitoneal time points were taken at 15 min, 30 min, 1, 2, 4, 6, 8, […]
Administration Dose Mean PK parameters
Clearance Terminal Vss Cmax Tmax F

% inhibition MLCK(h) (MLCK(h)) | inhibition at 1 µM (STK33(h)) | inhibition at 1 µM (MKK6(h)) | inhibition at 1 µM (PASK(h)) | inhibition at 1 µM (Tie2 (h)) | inhibition at 1 µM (mTOR/FKBP12(h)) | inhibition at 1 µM (SRPK2(h)) | IC50 [2] | Cmax (In vivo murine PK; ip, I.P.) | Tmax (In vivo murine PK; ip, I.P.) | bioavailability (In vivo murine PK; ip, I.P.) | half-life (In vivo murine PK; ip, I.P.) | clearance (In vivo murine PK; iv, I.V.) | half-life (In vivo murine PK; iv, I.V.) | Vd (In vivo murine PK; iv, I.V., read-out: Vss) | Compound | effect on TNFα-stimulated p65 (Ser536) phosphorylation [1] | effect on TNFα-stimulated IκBα degradation [3] | impact on IKKβ-mediated canonical NF-κB signalling ([3]; prostate cancer cell line (PC-3M), at 10 μM)
0% | 38% | 17% | 65% | 55% | 3% | -5% |  |  |  |  |  |  |  |  | Nc1n[nH]c2ccc(-c3ccnc4[nH]c(-c5ccccc5)cc34)cc12 [Compound 4] |  |  | 
-10% | 25% | 2% | 16% | 18% | 2% | -7% | 570 nM |  |  |  |  |  |  |  | Nc1n[nH]c2ccc(-c3ccnc4[nH]c(-c5cccc(OCc6ccccc6)c5)cc34)cc12 [Compound 5r [SU1261]] | did not impact | did not impact | 
 |  |  |  |  |  |  | 200 nM | 199 ng/mL | 0.44 h | 9.3% | 3.02 h | 16.7 mL/min/kg | 4.18 h | 0.39 L/kg | Nc1n[nH]c2ccc(-c3ccnc4[nH]c(-c5ccnc(OCc6ccccc6)c5)cc34)cc12 [Compound 6g [SU1349]] | no impact | no impact | no detectable impact
